IC50 data for 19 compounds are collected here from patent US20230041743A1, “1,8-NAPHTHYRIDIN-2-ONE COMPOUNDS FOR THE TREATMENT OF AUTOIMMUNE DISEASE” (Hoffmann-La Roche Inc., priority 2019, published 2023).

Bounds are passed on as bounds.

For the experiment, the target named is T1, human TLR8 (Homo sapiens, UniProt Q9NR97).
T1 construct: host or cells: HEK293 (HEK-Blue hTLR8)
T1 sequence (Q9NR97 27-1041): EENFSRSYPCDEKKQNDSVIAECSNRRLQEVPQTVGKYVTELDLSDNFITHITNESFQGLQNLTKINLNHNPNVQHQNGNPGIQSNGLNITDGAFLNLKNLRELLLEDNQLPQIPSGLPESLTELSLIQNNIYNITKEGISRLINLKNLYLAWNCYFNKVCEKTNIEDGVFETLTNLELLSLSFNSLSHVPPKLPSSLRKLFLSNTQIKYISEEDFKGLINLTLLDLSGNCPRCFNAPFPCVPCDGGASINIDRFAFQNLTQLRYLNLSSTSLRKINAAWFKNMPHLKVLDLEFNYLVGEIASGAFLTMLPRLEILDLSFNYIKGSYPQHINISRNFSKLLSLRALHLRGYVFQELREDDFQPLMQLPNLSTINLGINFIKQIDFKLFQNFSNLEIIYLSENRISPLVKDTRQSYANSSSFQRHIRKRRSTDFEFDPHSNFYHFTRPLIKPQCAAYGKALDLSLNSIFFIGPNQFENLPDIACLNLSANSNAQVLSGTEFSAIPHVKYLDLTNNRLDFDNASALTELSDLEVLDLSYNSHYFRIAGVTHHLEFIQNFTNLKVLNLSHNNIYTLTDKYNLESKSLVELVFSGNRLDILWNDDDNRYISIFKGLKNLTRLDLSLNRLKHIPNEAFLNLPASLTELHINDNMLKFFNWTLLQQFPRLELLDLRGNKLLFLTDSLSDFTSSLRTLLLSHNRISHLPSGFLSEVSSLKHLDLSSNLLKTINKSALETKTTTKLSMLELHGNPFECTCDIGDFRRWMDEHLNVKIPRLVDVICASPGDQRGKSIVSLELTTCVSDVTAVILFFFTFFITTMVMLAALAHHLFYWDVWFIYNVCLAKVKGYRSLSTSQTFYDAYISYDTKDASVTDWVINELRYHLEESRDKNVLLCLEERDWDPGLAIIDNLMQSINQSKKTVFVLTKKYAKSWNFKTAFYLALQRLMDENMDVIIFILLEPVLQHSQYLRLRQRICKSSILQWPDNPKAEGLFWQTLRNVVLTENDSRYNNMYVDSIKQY
Kind of experiment: HEK293-Blue-hTLR-8 cells assay (SEAP reporter, R848 stimulation). In kind it is cell-based. The following applies: HEK293-Blue-hTLR8 cells, R848 ligand, 20 hrs incubation; read-out: HEK/hTLR8 IC50. The text has this: HEK293-Blue-hTLR-8 Cells Assay:
A stable HEK293-Blue-hTLR-8 cell line was purchased from InvivoGen (Cat. #: hkb-htlr8, San Diego, Calif., USA). These cells were originally designed for studying the stimulation of human TLR8 by monitoring the activation of NF-κB. A SEAP (secreted embryonic alkaline phosphatase) reporter gene was placed under the control of the IFN-β minimal promoter fused to five NF-κB and AP-1-binding sites. The SEAP was induced by activating NF-κB and AP-1 via stimulating HEK-Blue hTLR8 cells with TLR8 ligands. Therefore the reporter expression was declined by TLR8 antagonist under the stimulation of a ligand, such as R848, for incubation of 20 hrs. The cell culture supernatant SEAP reporter activity was determined using QUANTI-Blue™ kit (Cat. #: rep-qb1, Invivogen, San Diego, Ca, USA) at a wavelength of 640 nm, a detection medium that turns purple or blue in the presence of alkaline phosphatase.
HEK293-Blue-hTLR8 cells were incubated at a density of 250,000-450,000 cells/mL in a volume of 170 μL in a 96-well plate in Dulbecco's Modified Eagle's medium (DMEM) containing 4.5 g/L glucose, 50 U/mL penicillin, […], […], 2 mM L-glutamine, 10% (v/v) heat-inactivated fetal bovine serum with addition of 20 μL test compound in a serial dilution in the presence of final DMSO at 1% and 10 μL of 60 uM R848 in above DMEM, perform incubation under 37° C. in a CO2 incubator for 20 hrs. Then 20 μL of the supernatant from each well was incubated with 180 μL Quanti-blue substrate solution at 37° C. for 2 hrs and the absorbance was read at 620-655 nm using a spectrophotometer. The signaling pathway that TLR8 activation leads to downstream NF-κB activation has been widely accepted, and therefore similar reporter assay was modified for evaluating TLR8 antagonist.
On to `C[C@@H]1CN(c2cc(=O)n(C)c3ncccc23)C[C@@H]2c3ccc(N4CCOC5(CNC5)C4)cc3CN12` [Example 11, 4-[(4R,10bS)-4-methyl-8-(5-oxa-2,8-diazaspiro[3.5]nonan-8-yl)-3,4,6,10b-tetrahydro-1H-pyrazino[2,1-a]isoindol-2-yl]-1-methyl-1,8-naphthyridin-2-one], for which the IC50 came to 24.1 nM.
Turning to `C[C@@H]1CN(c2cc(=O)n(C)c3ncccc23)C[C@@H]2c3ccc(N4CCNCC4)cc3CN12` [Example 12, 4-[(4R,10bS)-4-methyl-8-piperazin-1-yl-3,4,6,10b-tetrahydro-1H-pyrazino[2,1-a]isoindol-2-yl]-1-methyl-1,8-naphthyridin-2-one], the IC50 was determined as 0.8 nM.
Next, `C[C@@H]1CN(c2cc(=O)n(C)c3ncccc23)C[C@@H]2c3ccc(N4CCN[C@@H](C)C4)cc3CN12` [Example 13, 4-[(4R,10bS)-4-methyl-8-[(3S)-3-methylpiperazin-1-yl]-3,4,6,10b-tetrahydro-1H-pyrazino[2,1-a]isoindol-2-yl]-1-methyl-1,8-naphthyridin-2-one]: 1.3 nM.
With `C[C@@H]1CN(c2ccc3c(c2)CN2[C@H](C)CN(c4cc(=O)n(C)c5ncccc45)C[C@H]32)CCN1` [Example 14, 4-[(4R,10bS)-4-methyl-8-[(3R)-3-methylpiperazin-1-yl]-3,4,6,10b-tetrahydro-1H-pyrazino[2,1-a]isoindol-2-yl]-1-methyl-1,8-naphthyridin-2-one], the IC50 came to 1 nM.
The result for `C[C@@H]1CN(c2cc(=O)n(C)c3ncccc23)C[C@@H]2c3ccc(N4CCC[C@](C)(N)C4)cc3CN12` [Example 15, 4-[(4R,10bS)-8-[(3S)-3-amino-3-methyl-1-piperidyl]-4-methyl-3,4,6,10b-tetrahydro-1H-pyrazino[2,1-a]isoindol-2-yl]-1-methyl-1,8-naphthyridin-2-one] reads 7.2 nM; that for `C[C@@H]1CN(c2cc(=O)n(C)c3ncccc23)C[C@@H]2c3ccc(N4CCC[C@@H](N)C4)cc3CN12` [Example 16, 4-[(4R,10bS)-8-[(3R)-3-amino-1-piperidyl]-4-methyl-3,4,6,10b-tetrahydro-1H-pyrazino[2,1-a]isoindol-2-yl]-1-methyl-1,8-naphthyridin-2-one], 3.9 nM; that for `C[C@@H]1CNCCN1c1ccc2c(c1)CN1[C@H](C)CN(c3cc(=O)n(C)c4ncccc34)C[C@H]21` [Example 17, 4-[(4R,10bS)-4-methyl-8-[(2R)-2-methylpiperazin-1-yl]-3,4,6,10b-tetrahydro-1H-pyrazino[2,1-a]isoindol-2-yl]-1-methyl-1,8-naphthyridin-2-one], less than 0.3 nM.
`C[C@@H]1CN(c2cc(=O)n(C)c3ncccc23)C[C@@H]2c3ccc(N4CCC(C)(N)CC4)cc3CN12` [Example 18, 4-[(4R,10bS)-8-(4-amino-4-methyl-1-piperidyl)-4-methyl-3,4,6,10b-tetrahydro-1H-pyrazino[2,1-a]isoindol-2-yl]-1-methyl-1,8-naphthyridin-2-one]: the IC50 was 2.5 nM.
Next, `C[C@@H]1CN(c2cc(=O)n(C)c3ncccc23)C[C@@H]2c3ccc(N4C[C@@H]5C[C@H]4CN5)cc3CN12` [Example 19, 4-[(4R,10bS)-8-[(1S,4S)-2,5-diazabicyclo[2.2.1]heptan-2-yl]-4-methyl-3,4,6,10b-tetrahydro-1H-pyrazino[2,1-a]isoindol-2-yl]-1-methyl-1,8-naphthyridin-2-one]: 11.3 nM.
Next, `C[C@@H]1CN(c2cc(=O)n(C)c3ncccc23)C[C@@H]2c3ccc(N4C[C@H]5C[C@@H]4CN5)cc3CN12` [Example 20, 4-[(4R,10bS)-8-[(1R,4R)-2,5-diazabicyclo[2.2.1]heptan-2-yl]-4-methyl-3,4,6,10b-tetrahydro-1H-pyrazino[2,1-a]isoindol-2-yl]-1-methyl-1,8-naphthyridin-2-one]: 4.5 nM; `C[C@@H]1CN(c2cc(=O)n(C)c3ncccc23)C[C@@H]2c3ccc(N4CC5CCC(C4)N5)cc3CN12` [Example 21, 4-[(4R,10bS)-8-(3,8-diazabicyclo[3.2.1]octan-3-yl)-4-methyl-3,4,6,10b-tetrahydro-1H-pyrazino[2,1-a]isoindol-2-yl]-1-methyl-1,8-naphthyridin-2-one]: 1.8 nM.
The result for `C[C@@H]1CN(c2cc(=O)n(C)c3ncccc23)C[C@@H]2c3ccc(N4CCOC[C@H](N)C4)cc3CN12` [Example 22, 4-[(4R,10bS)-8-[(6R)-6-amino-1,4-oxazepan-4-yl]-4-methyl-3,4,6,10b-tetrahydro-1H-pyrazino[2,1-a]isoindol-2-yl]-1-methyl-1,8-naphthyridin-2-one] reads 4.9 nM; that for `C[C@@H]1CN(c2cc(=O)n(C)c3ncccc23)C[C@@H]2c3ccc(OCCN(C)C)cc3CN12` [Example 23, 4-[(4R,10bS)-8-[2-(dimethylamino)ethoxy]-4-methyl-3,4,6,10b-tetrahydro-1H-pyrazino[2,1-a]isoindol-2-yl]-1-methyl-1,8-naphthyridin-2-one], 1 nM.
Turning to `C[C@@H]1CN(c2cc(=O)n(C)c3ncccc23)C[C@@H]2c3ccc(C4CCNCC4)cc3CN12` [Example 24, 4-[(4R,10bS)-4-methyl-8-(4-piperidyl)-3,4,6,10b-tetrahydro-1H-pyrazino[2,1-a]isoindol-2-yl]-1-methyl-1,8-naphthyridin-2-one], the IC50 amounted to 1.4 nM.
Next, `C[C@@H]1CN(c2cc(=O)n(C)c3ncccc23)C[C@@H]2c3ccc(C4CCCNC4)cc3CN12` (stereo partly drawn) [Example 25, 4-[(4R,10bS)-4-methyl-8-(3-piperidyl)-3,4,6,10b-tetrahydro-1H-pyrazino[2,1-a]isoindol-2-yl]-1-methyl-1,8-naphthyridin-2-one]: 2.6 nM; `C[C@@H]1CN(c2cc(=O)n(C)c3ncccc23)C[C@@H]2c3ccc(C4CCNC4)cc3CN12` (stereo partly drawn) [Example 26, 4-[(4R,10bS)-4-methyl-8-pyrrolidin-3-yl-3,4,6,10b-tetrahydro-1H-pyrazino[2,1-a]isoindol-2-yl]-1-methyl-1,8-naphthyridin-2-one]: 6.5 nM.
The result for `C[C@@H]1CN(c2cc(=O)n(C)c3ncccc23)C[C@@H]2c3ccc([C@H]4CC[C@H](N5CCOCC5)CC4)cc3CN12` [Example 27A, 4-[(4R,10bS)-4-methyl-8-(trans-4-morpholinocyclohexyl)-3,4,6,10b-tetrahydro-1H-pyrazino[2,1-a]isoindol-2-yl]-1-methyl-1,8-naphthyridin-2-one] reads 2 nM.
Next, `C[C@@H]1CN(c2cc(=O)n(C)c3ncccc23)C[C@@H]2c3ccc([C@H]4CC[C@@H](N5CCOCC5)CC4)cc3CN12` [Example 27B, 4-[(4R,10bS)-4-methyl-8-(cis-4-morpholinocyclohexyl)-3,4,6,10b-tetrahydro-1H-pyrazino[2,1-a]isoindol-2-yl]-1-methyl-1,8-naphthyridin-2-one]: 10 nM; `C[C@@H]1CN(c2cc(=O)n(C)c3ncccc23)C[C@@H]2c3ccc([C@H]4C[C@H]5COC[C@@H](C4)N5)cc3CN12` [Example 28A, 4-[(4R,10bS)-4-methyl-8-(endo-3-oxa-9-azabicyclo[3.3.1]nonan-7-yl)-3,4,6,10b-tetrahydro-1H-pyrazino[2,1-a]isoindol-2-yl]-1-methyl-1,8-naphthyridin-2-one]: 1.7 nM.
